Measurements taken from patent US20250136594A1 (Tango Therapeutics, Inc., priority 2022, published 2025).

How the values were obtained:
[1] = tested on: HAP1 MTAP-deleted cell line; assay: Viability assay, HAP1 MTAP-deleted cell line; assay type: cell-based; details: Homo sapiens; viability assay, HAP1 MTAP-deleted cell line; read-out: Hap1 MTAP deleted viability IC50
[2] = tested on: SDMA in HAP1 MTAP-deleted (MTAP-null) cell line (PRMT5 inhibition); assay: SDMA in-cell western assay, HAP1 MTAP-deleted cell line; details: for IC50 / IC90: Homo sapiens; for IC50: HAP1, read-out: Hap1 MTAP deleted IC50; for IC90: HAP1, read-out: Hap1 MTAP deleted IC90; for Hap1 MTAP intact/deleted ratio: ratio of SDMA IC50 in HAP1 MTAP-intact to HAP1 MTAP-deleted cell line
[3] = tested on: SDMA in HAP1 MTAP-intact cell line (PRMT5 inhibition); assay: SDMA in-cell western assay, HAP1 MTAP-intact cell line; details: Homo sapiens, HAP1, read-out: Hap1 MTAP intact IC50

| IC50 [2] [µM] | IC90 [2] [µM] | IC50 [3] [µM] | SMILES | IC50 [1] [µM] | Hap1 MTAP intact/deleted ratio [2] |
| --- | --- | --- | --- | --- | --- |
| < 0.005 | < 0.075 | < 0.005 | Nc1ncc(NC(=O)C(=O)N(Cc2ccccn2)Cc2cccc3c2CCCO3)c2[nH]ncc12 [Compound 92, N-(4-amino-2H-pyrazolo[4,3-c]pyridin-7-yl)-N′-(chroman-5-ylmethyl)-N′-(2-pyridylmethyl)oxamide] | < 0.1 | C (IC50 ratio of less than 15 fold) |
| < 0.005 | < 0.075 | 0.005 to 0.05 | Cc1cccc(CN(Cc2ccccc2)C(=O)C(=O)Nc2cnc(N)c3cn[nH]c23)c1C [Compound 130, N-(4-amino-2H-pyrazolo[4,3-c]pyridin-7-yl)-N′-benzyl-N′—[(2,3-dimethylphenyl)methyl]oxamide] | < 0.1 | B (IC50 ratio greater than or equal to 15 fold but lower than 30 fold) |
| 0.005 to 0.05 | > 0.125 | > 0.05 | C[C@@H](c1ccc(C(F)(F)F)cc1)N(C)C(=O)C(=O)Nc1cnc(N)c2c1cnn2C [Compound 79, N-(7-Amino-1-methyl-pyrazolo[3,4-c]pyridin-4-yl)-N′-methyl-N′—[(1S)-1-[4-(trifluoromethyl)phenyl]ethyl]oxamide] | 0.1 to 1 | A (IC50 ratio greater than or equal to 30 fold) |
| < 0.005 | > 0.125 | < 0.005 | Cc1cc(NC(=O)C(=O)N(Cc2ccc(C(F)(F)F)cn2)[C@H](C)c2ncccn2)cnc1N [Compound 6, N-(6-amino-5-methyl-3-pyridyl)-N′—[(1R)-1-pyrimidin-2-ylethyl]-N′-[[5-(trifluoromethyl)-2-pyridyl]methyl]oxamide] | 0.1 to 1 | C (IC50 ratio of less than 15 fold) |
| 0.005 to 0.05 | > 0.125 | > 0.05 | CCc1cc(NC(=O)C(=O)N(Cc2ccc(C(F)(F)F)cn2)C(C)C(C)C)cnc1N (stereo not shown) [Compound 42, N-(6-amino-5-ethyl-3-pyridyl)-N′-(1,2-dimethylpropyl)-N′-[[5-(trifluoromethyl)-2-pyridyl]methyl]oxamide] | 0.1 to 1 | B (IC50 ratio greater than or equal to 15 fold but lower than 30 fold) |
| 0.005 to 0.05 | > 0.125 | > 0.05 | CCc1cc(NC(=O)C(=O)N(Cc2ccc(C(F)(F)F)cn2)[C@@H]2CCC[C@H]2OC(F)F)cnc1N [Compound 35, N1-(6-amino-5-ethylpyridin-3-yl)-N^2-((1R,2R)-2-(difluoromethoxy)cyclopentyl)-N^2-((5-(trifluoromethyl)pyridin-2-yl)methyl)oxalamide] | 0.1 to 1 | A (IC50 ratio greater than or equal to 30 fold) |
| < 0.005 | < 0.075 | > 0.05 | Cc1cc(F)ccc1CN(CC(C)C)C(=O)C(=O)Nc1cnc(N)c2cn[nH]c12 [Compound 71, N-(4-amino-1H-pyrazolo[4,3-c]pyridin-7-yl)-N′-[(4-fluoro-2-methyl-phenyl)methyl]-N′-isobutyl-oxamide] | < 0.1 | A (IC50 ratio greater than or equal to 30 fold) |
| < 0.005 | < 0.075 | > 0.05 | COc1ncc(NC(=O)C(=O)N(Cc2ccc(C(F)(F)F)cn2)Cc2ccccc2C)cc1C(N)=O [Compound 143] | < 0.1 | A (IC50 ratio greater than or equal to 30 fold) |
| < 0.005 | < 0.075 | 0.005 to 0.05 | Nc1ncc(NC(=O)C(=O)N(Cc2ccccc2)Cc2ccccc2Cl)c2[nH]ncc12 [Compound 87, N-(4-amino-1H-pyrazolo[4,3-c]pyridin-7-yl)-N′-benzyl-N′-[(2-chlorophenyl)methyl]oxamide] | < 0.1 | B (IC50 ratio greater than or equal to 15 fold but lower than 30 fold) |
| 0.005 to 0.05 | > 0.125 | > 0.05 | CN(Cc1ccc(C(F)(F)F)cc1F)C(=O)C(=O)Nc1cnc(N)c2cn[nH]c12 [Compound 96, N-(4-Amino-1H-pyrazolo[4,3-c]pyridin-7-yl)-N′-[[2-fluoro-4-(trifluoromethyl)phenyl]methyl]-N′-methyl-oxamide] | 0.1 to 1 | A (IC50 ratio greater than or equal to 30 fold) |
| < 0.005 | < 0.075 | 0.005 to 0.05 | C[C@H](c1ccc(C(F)(F)C(F)(F)F)cc1)N(C)C(=O)C(=O)Nc1cnc(N)c2c1cnn2C [Compound 81, N-(7-Amino-1-methyl-pyrazolo[3,4-c]pyridin-4-yl)-N′-methyl-N′—[(1R)-1-[4-(1,1,2,2,2-pentafluoroethyl)phenyl]ethyl]oxamide] | < 0.1 | A (IC50 ratio greater than or equal to 30 fold) |
| < 0.005 | < 0.075 | 0.005 to 0.05 | Cc1ccc(CN(Cc2ccccc2)C(=O)C(=O)Nc2cnc(N)c3cn[nH]c23)nc1 [Compound 179, N-(4-amino-1H-pyrazolo[4,3-c]pyridin-7-yl)-N′-benzyl-N′-[(5-methyl-2-pyridyl)methyl]oxamide] | < 0.1 | A (IC50 ratio greater than or equal to 30 fold) |
| < 0.005 | < 0.075 | > 0.05 | CN(Cc1ccc(C(F)(F)C(F)(F)F)cc1F)C(=O)C(=O)Nc1cnc(N)c2cn[nH]c12 [Compound 157] | < 0.1 | A (IC50 ratio greater than or equal to 30 fold) |
| 0.005 to 0.05 | > 0.125 | > 0.05 | CC(c1ncccn1)N(Cc1ccc(C#N)cn1)C(=O)C(=O)Nc1cnc(N)c2cn[nH]c12 (stereo not shown) [Compound 135, N-(4-Amino-1H-pyrazolo[4,3-c]pyridin-7-yl)-N′-[(5-cyano-2-pyridyl)methyl]-N′-(1-pyrimidin-2-ylethyl)oxamide] | 0.1 to 1 | C (IC50 ratio of less than 15 fold) |
| < 0.005 | < 0.075 | > 0.05 | CCN(Cc1ccc(C(F)(F)C(F)(F)F)cc1C)C(=O)C(=O)Nc1cnc(N)c2cn[nH]c12 [Compound 99] | < 0.1 | A (IC50 ratio greater than or equal to 30 fold) |
| 0.005 to 0.05 | > 0.125 | > 0.05 | CCc1cc(NC(=O)C(=O)N(Cc2ccc(C(F)(F)F)cn2)[C@@H](COC)C2CC2)cnc1N [Compound 7, (R)—N^1-(6-amino-5-ethylpyridin-3-yl)-N^2-(1-cyclopropyl-2-methoxyethyl)-N^2-((5-(trifluoromethyl)pyridin-2-yl)methyl)oxalamide] | 0.1 to 1 | B (IC50 ratio greater than or equal to 15 fold but lower than 30 fold) |
| < 0.005 | < 0.075 | < 0.005 | Nc1ncc(NC(=O)C(=O)N(Cc2ccccn2)Cc2cccc(Cl)c2Cl)c2[nH]ncc12 [Compound 91, N-(4-amino-2H-pyrazolo[4,3-c]pyridin-7-yl)-N′—[(2,3-dichlorophenyl)methyl]-N′-(2-pyridylmethyl)oxamide] | < 0.1 | C (IC50 ratio of less than 15 fold) |
